Like-named read-outs stand apart in the source and are kept apart here.
How the values were obtained:
[1] = tested on: G-protein coupled inwardly rectifying K+ channels (GIRKs); conditions: in vitro; cited from earlier work
[2] = tested on: mouse peripheral nerve injury neuropathic pain models; conditions: cited from earlier work
HCN1 channels [3] = biological target: T1, HCN1 channels (Mus musculus, UniProt O88704); test: Additivity/competition of ligands with 3 μM DTB-P on HCN1 gating; type: cell-based, murine; conditions: increasing ligand concentrations plus 3 μM DTB-P
murine HCN1 channels = murine HCN1 channels (Mus musculus, UniProt O88704); type: cell-based; conditions: for Inverse agonist behavior on HCN1 gating (in words): ligand alone; for IC50 (in words): no clear inflection in the concentration response curve, omitted from Figure 4B; for ΔV1/2: paired experiments
[4] = cited from earlier work
[5] = tested on: chimeric mu opiate (μOR-Gqi5) receptors; conditions: up to 100 μM; cited from earlier work
GABAA receptors = conditions: cited from earlier work
α3β glycine receptors = conditions: cited from earlier work
HCN1 channels [6] = biological target: T1, HCN1 channels; test: Gating model; type: cell-based, murine; conditions: for Fold Change of closed state association constant, phenol vs cyclohexanol / Fold Change of open state association constant, phenol vs cyclohexanol / Association constant to closed channels (KC, QC, JC) / Association constant to open channels (KO, QO, JO): common site model S=4; for Association constant to closed channels (KC, QC, JC) / Association constant to open channels (KO, QO, JO): constants and errors divided by 10^4
[7] = Hill fit maximal shift of activation midpoint, mean ± SD

T1 sequence (O88704 whole entry): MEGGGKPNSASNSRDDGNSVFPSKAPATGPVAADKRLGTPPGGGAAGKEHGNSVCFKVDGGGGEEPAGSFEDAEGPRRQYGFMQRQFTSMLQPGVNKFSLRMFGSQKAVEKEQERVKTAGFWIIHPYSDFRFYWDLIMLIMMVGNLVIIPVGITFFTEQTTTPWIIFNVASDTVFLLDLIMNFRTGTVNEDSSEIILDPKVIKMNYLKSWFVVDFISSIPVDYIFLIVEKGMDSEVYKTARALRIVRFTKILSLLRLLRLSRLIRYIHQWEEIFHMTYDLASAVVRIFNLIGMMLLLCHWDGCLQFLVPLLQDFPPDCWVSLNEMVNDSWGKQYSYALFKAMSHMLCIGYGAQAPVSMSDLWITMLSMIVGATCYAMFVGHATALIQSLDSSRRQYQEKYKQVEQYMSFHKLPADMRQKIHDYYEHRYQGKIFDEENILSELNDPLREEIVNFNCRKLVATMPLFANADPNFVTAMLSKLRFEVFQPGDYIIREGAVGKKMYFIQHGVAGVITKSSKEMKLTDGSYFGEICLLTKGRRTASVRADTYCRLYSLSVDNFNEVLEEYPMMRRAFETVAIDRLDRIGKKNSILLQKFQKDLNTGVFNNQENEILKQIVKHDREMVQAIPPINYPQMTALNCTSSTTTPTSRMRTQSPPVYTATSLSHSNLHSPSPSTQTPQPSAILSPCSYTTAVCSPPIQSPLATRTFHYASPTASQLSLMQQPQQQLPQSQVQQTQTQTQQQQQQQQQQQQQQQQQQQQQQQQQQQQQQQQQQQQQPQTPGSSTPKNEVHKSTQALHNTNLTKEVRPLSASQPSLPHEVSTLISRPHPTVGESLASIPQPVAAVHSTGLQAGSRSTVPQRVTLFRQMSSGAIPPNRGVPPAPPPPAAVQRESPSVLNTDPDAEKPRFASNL
murine HCN1 channels, sequence (O88704 whole entry): as above

CC(C)c1cccc(C(C)C)c1O [DIP-P, 2,6-di-iso-propyl phenol, reference compound]
Direct effect on GIRKs [1]: no direct effect
Anti-hyperalgesia [2]: mechanical and thermal anti-hyperalgesia
Behavior in the presence of 3 μM DTB-P (in words) (HCN1 channels [3]): second full inverse
Shift in the V1/2 of HCN1 gating (murine HCN1 channels): ~ −40 mV
h (Hill coefficient) (murine HCN1 channels): 0.85 ± 0.11
ΔV1/2 max (murine HCN1 channels): −39.8 ± 2.3 mV
IC50 (murine HCN1 channels; IC50): 5.8 ± 1.2 µM
Increase of solubility by 2-hydroxypropyl-β-cyclodextrin (HPβCD) [4]: ≥ 200 fold
Effect on DAMGO-evoked currents generated by μOR-Gqi5 receptors [5]: inhibit

Cc1cccc(C)c1N=C=O [DM-PIC, 2,6-di-methyl phenyl-isocyanate]
Inverse agonist behavior on HCN1 gating (in words) (murine HCN1 channels): ineffective
IC50 (in words) (murine HCN1 channels): ill-defined

Cc1cccc(C)c1O [DM-P, 2,6-di-methyl phenol]
Inverse agonist behavior on HCN1 gating (in words) (murine HCN1 channels): ineffective
IC50 (in words) (murine HCN1 channels): ill-defined

CC(C)(C)c1cccc(C(C)(C)C)c1O [DTB-P, 2,6-di-tert-butyl phenol]
Activity at GABAA receptors (GABAA receptors): minimal activity
Anti-hyperalgesia [2]: mechanical and thermal anti-hyperalgesia
Effect on open channel probability (Po) of α3β glycine receptors (α3β glycine receptors): increases open channel probability
IC50 (murine HCN1 channels): 4.8 ± 0.8 µM
ΔV1/2 max (murine HCN1 channels; [7]): −42.4 ± 2.8 mV
h (Hill coefficient) (murine HCN1 channels; Hill fit, mean ± SD): 0.97 ± 0.13
Shift in the V1/2 of HCN1 gating (murine HCN1 channels; at the highest concentrations): ~ −40 mV
Increase of solubility by 2-hydroxypropyl-β-cyclodextrin (HPβCD) [4]: ≥ 200 fold

CC1CCCC(C)C1O (stereo not drawn) [DM-CH, 2,6-di-methyl cyclohexanol]
IC50 (in words) (murine HCN1 channels): ill-defined

CCc1cccc(CC)c1N=C=O [DE-PIC, 2,6-diethyl phenyl-isocyanate]
Inverse agonist behavior on HCN1 gating (in words) (murine HCN1 channels): effective

CCC1CCCC(CC)C1O (stereo not drawn) [DE-CH, 2,6-di-ethyl cyclohexanol]
Behavior in the presence of 3 μM DTB-P (in words) (HCN1 channels [3]): neither additivity nor competition
IC50 (murine HCN1 channels): 3000 ± 723 µM
Inverse agonist behavior on HCN1 gating (in words) (murine HCN1 channels): only weakly effective as an inverse agonist
IC50 (in words) (murine HCN1 channels): ill-defined

CCc1cccc(CC)c1O [DE-P, 2,6-di-ethyl phenol]
Maximal efficacy lower than the maximal effect of DIP-P and DTB-P (murine HCN1 channels): ~ 2 fold
ΔV1/2 (murine HCN1 channels; 100 μM, n = 8): −21.6 mV
ΔV1/2 (murine HCN1 channels; 300 μM, n = 9): −21.2 mV
ΔV1/2 max (murine HCN1 channels; [7]): −22.1 ± 1.0 mV
h (Hill coefficient) (murine HCN1 channels; Hill fit, mean ± SD): 1.95 ± 0.44
IC50 (murine HCN1 channels; IC50, Hill fit of ΔV1/2 vs concentration, all parameters free, mean ± SD): 25.1 ± 2.7 µM
Inverse agonist behavior on HCN1 gating (in words) (murine HCN1 channels): partial inverse agonist
Aqueous solubility limit ([4]; ref https://comptox.epa.gov/dashboard DTXSID5061401): ~ 10 mM

CC(C)(C)C1CCCC(C(C)(C)C)C1O (stereo not drawn) [DTB-CH, 2,6-di-tert-butyl cycloxhexanol]
Behavior in the presence of 3 μM DTB-P (in words) (HCN1 channels [3]): partial inverse agonists
Fold Change of closed state association constant, phenol vs cyclohexanol (HCN1 channels [6]): 5.4
Fold Change of open state association constant, phenol vs cyclohexanol (HCN1 channels [6]): 1.8
Association constant to closed channels (KC, QC, JC) (HCN1 channels [6]): 4.6 ± 2.0
Association constant to open channels (KO, QO, JO) (HCN1 channels [6]): 3.1 ± 1.5
ΔV1/2 max (murine HCN1 channels; [7]): −9.9 ± 1.5 mV
IC50 (murine HCN1 channels; Hill fit of ΔV1/2 vs concentration, all parameters free, mean ± SD): 11.4 ± 4.2 µM
h (Hill coefficient) (murine HCN1 channels; Hill fit, mean ± SD): 1.28 ± 0.47

CC(C)c1cccc(C(C)C)c1F [DIP-PF, 2,6-di-iso-propyl phenyl-fluorine]
IC50 (murine HCN1 channels): 267 ± 24 µM
Destabilization of association on replacing OH with F (murine HCN1 channels; from observed IC50 ratio): 2.3 kcal/mol
Destabilization of association on replacing OH with F (murine HCN1 channels; from partition-corrected IC50 ratio): 4.5 kcal/mol
Shift in IC50 on replacing OH with F (murine HCN1 channels; ratio of observed aqueous IC50s of DIP-P and DIP-PF): 46 fold
Shift in IC50 on replacing OH with F (murine HCN1 channels; ratio of partition-corrected IC50s of DIP-P and DIP-PF): 1,870 fold

Cc1cccc(C)c1S [DM-PT, 2,6-di-methyl phenyl-thiol]
Inverse agonist behavior on HCN1 gating (in words) (murine HCN1 channels): clear inverse agonist activity

CC(C)C1CCCC(C(C)C)C1O (stereo not drawn) [DIP-CH, 2,6-di-iso-propyl cyclohexanol]
Behavior in the presence of 3 μM DTB-P (in words) (HCN1 channels [3]): partial inverse agonists
Fold Change of closed state association constant, phenol vs cyclohexanol (HCN1 channels [6]): 3.8
Fold Change of open state association constant, phenol vs cyclohexanol (HCN1 channels [6]): 1.8
IC50 (murine HCN1 channels): 35 ± 21 µM
ΔV1/2 max (murine HCN1 channels; [7]): −18.9 ± 3.4 mV
h (Hill coefficient) (murine HCN1 channels; Hill fit, mean ± SD): 0.76 ± 0.19

CCC(C)c1cccc(C(C)CC)c1O (stereo not drawn) [DSB-P, 2,6-di-sec-butyl phenol]
Behavior in the presence of 3 μM DTB-P (in words) (HCN1 channels [3]): low affinity full inverse agonist
Jc^I closed state association constant (HCN1 channels [6]; common site model S=4, fit of data without and with 3 μM DTB-P, not scaled): 3,696 ± 2,948

CCC(C)C1CCCC(C(C)CC)C1O (stereo not drawn) [DSB-CH, 2,6-di-sec-butyl cyclohexanol]
Association constant to closed channels (KC, QC, JC) (HCN1 channels [6]): no effect
Association constant to open channels (KO, QO, JO) (HCN1 channels [6]): no effect
IC50 (in words) (murine HCN1 channels): ill-defined

Source: article PMC6599521 (Biochemical pharmacology, 2019)
